Data set [1] relates to L02. Nature of the data set: Cytotoxicity against human L02 cells assessed as growth inhibition after 72 hrs by MTT assay. In kind it is cell-based. Conditions: L02, 72 h. On the technique in general: Tetrazolium dyes change colour on reduction, which living cells bring about.
In data set [2] the test system is L02. Nature of the data set: Cell cycle arrest in human L02 cells assessed as accumulation at G0/G1 phase at 100 nM after 72 hrs by propidium iodide staining-based flow cytometric method (reference value: 57.34%). In kind it is ADME. Conditions: l02, 72 h, 0.1 µM. In general terms: A flow cytometer gives signals particle by particle.
Data set [3] has as its system L02. Nature of the data set: Induction of apoptosis in human L02 cells assessed as necrotic cells at 200 nM after 72 hrs by annexin V-FITC/propidium iodide staining-based flow cytometric method (reference value: 0%). In kind it is cell-based. Conditions: l02, 72 h, 0.2 µM.
The subject of data set [4] is A549. Nature of the data set: Induction of apoptosis in human A549 cells assessed as viable cells at 10 nM after 72 hrs by annexin V-FITC/propidium iodide staining-based flow cytometric method (reference value: 92.8%). In kind it is functional. Particulars: A549, 72 h, read-out: Activity.
Data set [5] deals with A549. Nature of the data set: Induction of apoptosis in human A549 cells assessed as early apoptotic cells at 10 nM after 72 hrs by annexin V-FITC/propidium iodide staining-based flow cytometric method (reference value: 3%). In kind it is functional.
Data set [6] is described as follows: Induction of apoptosis in human L02 cells assessed as viable cells at 200 nM after 72 hrs by annexin V-FITC/propidium iodide staining-based flow cytometric method (reference value: 96.3%). In kind it is cell-based. Conditions: read-out: Activity.
For data set [7], the system named is L02. Nature of the data set: Induction of apoptosis in human L02 cells assessed as necrotic cells at 100 nM after 72 hrs by annexin V-FITC/propidium iodide staining-based flow cytometric method (reference value: 0%). It counts as cell-based. Conditions: l02, 72 h, 0.1 µM.
Data set [8] concerns L02. Nature of the data set: Induction of apoptosis in human L02 cells assessed as early apoptotic cells at 200 nM after 72 hrs by annexin V-FITC/propidium iodide staining-based flow cytometric method (reference value: 2%). It counts as cell-based. Conditions: l02, 72 h, 0.2 µM.
A short description of data set [9]: Induction of apoptosis in human L02 cells assessed as viable cells at 100 nM after 72 hrs by annexin V-FITC/propidium iodide staining-based flow cytometric method (reference value: 96.3%). It counts as cell-based. Conditions: read-out: Activity.
For data set [10], the system named is L02. Nature of the data set: Induction of apoptosis in human L02 cells assessed as necrotic cells at 10 nM after 72 hrs by annexin V-FITC/propidium iodide staining-based flow cytometric method (reference value: 0%). It counts as cell-based. Conditions: l02, 72 h, 0.01 µM.
The test system of data set [11] is L02. Nature of the data set: Cell cycle arrest in human L02 cells assessed as accumulation at S phase at 100 nM after 72 hrs by propidium iodide staining-based flow cytometric method (reference value: 25.78%). In kind it is ADME. Conditions: l02, 72 h, 0.1 µM.
For data set [12], the system named is L02. Nature of the data set: Cell cycle arrest in human L02 cells assessed as accumulation at G2/M phase at 5 nM after 72 hrs by propidium iodide staining-based flow cytometric method (reference value: 16.88%). In kind it is ADME. Conditions: l02, 72 h, 0.005 µM.
Data set [13] has as its system A549. Nature of the data set: Cell cycle arrest in human A549 cells assessed as accumulation at G2/M phase at 5 nM after 72 hrs by propidium iodide staining-based flow cytometric method (reference value: 14.23%). It counts as functional.
In data set [14] the test system is A549. Nature of the data set: Induction of apoptosis in human A549 cells assessed as necrotic cells at 100 nM after 72 hrs by annexin V-FITC/propidium iodide staining-based flow cytometric method (reference value: 0.1%). It counts as functional.
The test system of data set [15] is A549. Nature of the data set: Cell cycle arrest in human A549 cells assessed as accumulation at G2/M phase at 10 nM after 72 hrs by propidium iodide staining-based flow cytometric method (reference value: 14.23%). In kind it is functional.

pIC50: −log10 of the molar value.

A word on the pIC50: it is −log10 of the IC50, conventionally taken in molar units. For the compound `COc1cc([C@@H]2c3cc4c(cc3[C@H](OC(=O)CN(C)C(=O)OC(C)(C)C)[C@H]3COC(=O)[C@H]23)OCO4)cc(OC)c1OC`, the pIC50 in the data set with L02 [1] was 6.80. The Activity was determined as 67.29% in the data set with L02 [2]; 0.1% with L02 [3]; 4.1% with A549 [5]; 0% in the data set with L02 [7]; 65% in the data set with L02 [8]; 0% with L02 [10]. For the same compound, the Activity stood at 18.93% in the data set with L02 [11]; 13.77% with L02 [12]; 13.74% in the data set with A549 [13]; 0% in the data set with A549 [14]; 13.54% in the data set on A549 [15]. Besides, in the data set on A549 [4], the viability at 0.01 µM is 87.8%. For the same compound, the viability at 72 h, 0.2 µM in data set [6] worked out at 31.8%. Further, the viability at 72 h, 0.1 µM in data set [9] amounted to 87.3%.

The record behind these values is ChEMBL document CHEMBL4152293, “Synthesis and biological evaluation of podophyllotoxin derivatives as selective antitumor agents” (Eur J Med Chem, 2018).
